Values quoted from earlier work, collected in patent publication US5763196A, “Assays using cross-linked polypeptide fragments of β-galactosidase” (priority 1996, dated 1998).

System: interleukin-1-β converting enzyme (ICE protease)

SMILES | minimal and best peptide substrate found to date (Thornberry, Nature 356:768-74 (1992)) | inhibition of ICE protease (in words) (Nature 375:78-81 (1995))
CNC(=O)[C@H](CC(=O)O)NC(=O)[C@H](C)NC(=O)[C@@H](NC(=O)[C@H](Cc1ccc(O)cc1)NC(C)=O)C(C)C [Ac-Tyr-Val-Ala-Asp-NH-CH3] | minimal and best peptide substrate | 
CC(=O)N[C@@H](Cc1ccc(O)cc1)C(=O)N[C@H](C(=O)N[C@@H](C)C(=O)N[C@@H](CC(=O)O)C(=O)CCl)C(C)C [Ac-Tyr-Val-Ala-Asp-*] |  | potent inhibitor
